In patent US10344019B2 (priority 2010, dated 2019) one finds EC50 data, which are given here for 20 compounds.

Common to all, as to assay: microbe, parasite or virus in culture
Assay type in all cases: cell-based

Experiment [1] concerns HCV 2a JFH-1 Rluc cells (dicistronic genotype 2a JFH-1 replicon, RLuc reporter). Conditions: genotype 2a JFH-1 replicon, read-out: 2a JFH. As for the experimental part:
(§1) Evaluation of cell-based anti-HCV activity: Antiviral potency (EC50) was determined using a Renilla luciferase (RLuc)-based HCV replicon reporter assay. To perform the assay for genotype 1 and 2a JFH-1, HCV 1b RLuc cells (harboring a dicistronic genotype 1b Con1 replicon that encodes a RLuc reporter), or HCV 1a RLuc cells (harboring a dicistronic genotype 1a H77 replicon that encodes a RLuc reporter), or HCV 2a JFH-1 Rluc cells (harboring a dicistronic genotype 2a JFH-1 replicon that encodes a RLuc reporter) were dispensed into 384-well plates. To perform the assay for genotype 2a (with M31 present) or 2b, HCV 2a Rluc or 2b Rluc cells (both with M31 present) harboring a dicistronic NS5A chimeric genotype 2a JFH-1 replicon that encodes a RLuc reporter and either genotype 2a J6 strain NS5A gene or genotype 2b MD2b-1 NS5A gene (based on Los Alamos HCV database isolates, both with M31 present) respectively, were dispensed into 384-well plates. To perform the assay for genotype 3 and 4, HCV 3a RLuc or 4a Rluc cells harboring a dicistronic NS5A chimeric genotype 1b Con1 replicon that encodes a RLuc reporter and either a consensus genotype 3a NS5A gene or genotype 4a NS5A gene (based on Los Alamos HCV database isolates) respectively, were dispensed into 384-well plates. Compounds were re-suspended in DMSO at a concentration of 10 mM and serially diluted in DMSO either manually or using an automated pipeting instrument. Serially diluted compounds were mixed with cell culture media and added to the seeded cells. […] 72 hours later, cells were lysed and Renilla luciferase activity quantified as recommended by the manufacturer (Promega-Madison, Wis.). Non-linear regression was performed to calculate EC50 values.
On the technique in general: Replicon systems follow genome replication, usually without infectious particles.

Experiment [2] deals with HCV 4a Rluc cells (NS5A chimeric genotype 1b Con1 replicon with genotype 4a NS5A gene). Conditions: Hepatitis C virus, read-out: 4a. As for the experimental part:
as §1

The test system of experiment [3] is HCV 1b RLuc cells (dicistronic genotype 1b Con1 replicon, RLuc reporter). As for the experimental part:
as §1

Experiment [4] concerns HCV 1a RLuc cells (dicistronic genotype 1a H77 replicon, RLuc reporter). Conditions: genotype 1a H77 replicon, read-out: 1a. As for the experimental part: as §1
In experiment [5] the test system is HCV 3a RLuc cells (NS5A chimeric genotype 1b Con1 replicon with consensus genotype 3a NS5A gene). On the procedure: as §1
The mark [6] stands for this setting: Hepatitis C virus, 72 h, Table 1, 72 hours.
The mark [7] stands for this setting: Hepatitis C virus, 72 h, read-out: 1b (nM).
[8] abbreviates: Hepatitis C virus, RLuc reporter.
[9] abbreviates: Hepatitis C virus, read-out: 3a, genotype 3a NS5A chimeric 1b Con1 replicon.
Where [10] appears, read: Hepatitis C virus, read-out: 1b (nM).
[11] abbreviates: Hepatitis C virus, 72 h, Table 2, 72 hours.
Where [12] appears, read: Hepatitis C virus, read-out: 3a, Table 2, genotype 3a NS5A chimeric replicon.

The structures appear in SMILES notation. Like-named read-outs stand apart in the source and are kept apart here. A value given as a limit tells only on which side of the number the result lay.

For `COC(=O)NC(C(=O)N1CCC[C@@H]1c1ncc(-c2cc3c4c(c2)OCc2cc(-c5cnc([C@@H]6CCCN6C(=O)[C@@H](NC(=O)OC)C(C)C)[nH]5)cc(c2-4)OC3)[nH]1)C(C)C` (stereo partly drawn) [Example 10], the EC50 in experiment [1] (setting [6]) is 0.001 to 0.999 nM; in experiment [2], 0.001 to 0.99 nM; in experiment [3] (setting [7]), 0.406 nM; in experiment [4] (setting [6]) it was 1 to 44 nM; in experiment [5] (Hepatitis C virus, read-out: 3a, Table 1, genotype 3a NS5A chimeric replicon), 0.001 to 0.99 nM.

Take `COC(=O)N[C@@H](C)C(=O)N1CCC[C@H]1c1nc2c([nH]1)-c1ccc(-c3ccc4cc(-c5cnc([C@@H]6CCCN6C(=O)[C@H](NC(=O)OC)c6ccccc6)[nH]5)ccc4c3)cc1CC2` [Example 272]: the EC50 in experiment [1] (setting [8]) is > 44 nM; in experiment [2] it was 1 to 4.99 nM; in experiment [4] (setting [8]), > 44 nM; in experiment [5] (setting [9]), > 5 nM.

With `COC(=O)N[C@H](C(=O)N1CCC[C@H]1c1ncc(-c2ccc(-c3ccc4cc(-c5cnc([C@@H]6CCCN6C(=O)[C@@H](NC(=O)OC)C(C)C)[nH]5)ccc4c3)cc2)[nH]1)c1cccnc1` [Example 160], the EC50 in experiment [1] (setting [8]) is 0.001 to 0.999 nM; in experiment [3] (setting [10]) it was 0.017 nM; in experiment [4] (setting [8]), 0.001 to 0.999 nM; in experiment [5] (setting [9]) it was 0.001 to 0.99 nM.

As for `COC(=O)NC(C(=O)N1CCC[C@H]1c1ncc(-c2ccc(-c3ccc4cc(-c5cnc([C@@H]6CCCN6C(=O)[C@@H](NC(=O)OC)C(C)C)[nH]5)ccc4c3)cc2)[nH]1)c1ccccc1Cl` (stereo partly drawn) [Example 104], the EC50 was 0.001 to 0.999 nM in experiment [1] (setting [8]), 0.007 nM in experiment [3] (setting [10]), 0.001 to 0.999 nM in experiment [4] (setting [8]) and 0.001 to 0.99 nM in experiment [5] (setting [9]).

`CN(C)C(C(=O)N1CCC[C@H]1c1ncc(-c2ccc3cc(-c4ccc(-c5cnc([C@@H]6CCCN6C(=O)[C@H](C6CCOCC6)N(C)C)[nH]5)cc4)ccc3c2)[nH]1)c1ccccc1` (stereo partly drawn) [Example 156]: the EC50 is 0.001 to 0.999 nM in experiment [1] (setting [8]), 0.028 nM in experiment [3] (setting [10]), 0.001 to 0.999 nM in experiment [4] (setting [8]) and 0.001 to 0.99 nM in experiment [5] (setting [9]).

Regarding `COC(=O)N[C@H](C(=O)N1CCC[C@H]1c1ncc(-c2ccc3cc(-c4ccc(-c5cnc([C@@H]6SCCN6C(=O)[C@H](NC(=O)OC)c6ccccc6)[nH]5)cc4)ccc3c2)[nH]1)C(C)C` [Example 117], the EC50 in experiment [1] (setting [8]) was 0.001 to 0.999 nM; in experiment [3] (setting [10]), 0.007 nM; in experiment [4] (setting [8]), 0.001 to 0.999 nM; in experiment [5] (setting [9]), 0.001 to 0.99 nM.

Consider `CCC(=O)N[C@@H](C(=O)N1CCC[C@H]1c1ncc(-c2ccc(-c3ccc4cc(-c5cnc([C@@H]6CCCN6C(=O)[C@@H](NC(=O)OC)C(C)C)[nH]5)ccc4c3)cc2)[nH]1)c1ccccc1` [Example 187], for which the EC50 in experiment [1] (setting [8]) was 0.001 to 0.999 nM; in experiment [3] (setting [10]), 0.007 nM; in experiment [4] (setting [8]), 0.001 to 0.999 nM; in experiment [5] (setting [9]), 0.001 to 0.99 nM.

As for `COC(=O)N[C@H](C(=O)N1CCC[C@H]1c1ncc(-c2ccc3cc(-c4ccc(-c5cnc([C@@H]6CCCN6C(=O)C(c6ccc7c(c6)OCO7)N(C)C)[nH]5)cc4)ccc3c2)[nH]1)C(C)C` (stereo partly drawn) [Example 151], the EC50 in experiment [1] (setting [8]) is 1 to 44 nM; in experiment [3] (setting [10]), 0.038 nM; in experiment [4] (setting [8]), 1 to 44 nM; in experiment [5] (setting [9]) it was 1 to 4.99 nM.

On to `COC(=O)N[C@H](C(=O)N1CCC[C@H]1c1nc2c([nH]1)-c1ccc(-c3ccc4cc(-c5cnc([C@@H]6CCCN6C(=O)[C@@H](NC(=O)OC)C6CCOCC6)[nH]5)ccc4c3)cc1CC2)C(C)C` [Example 209], for which the EC50 is 0.001 to 0.999 nM in experiment [1] (setting [8]), 0.014 nM in experiment [3] (setting [10]), 0.001 to 0.999 nM in experiment [4] (setting [8]) and 0.001 to 0.99 nM in experiment [5] (setting [9]).

Turning to `COC(=O)N[C@H](C(=O)N1CCC[C@H]1c1nc2c([nH]1)-c1ccc(-c3ccc4cc(-c5cnc([C@@H]6CCCN6C(=O)[C@H](NC(=O)OC)c6ccccc6)[nH]5)ccc4c3)cc1CC2)C(C)C` [Example 210], the EC50 in experiment [1] (setting [8]) is 0.001 to 0.999 nM; in experiment [3] (setting [10]), 0.008 nM; in experiment [4] (setting [8]), 0.001 to 0.999 nM; in experiment [5] (setting [9]), 0.001 to 0.99 nM.

As to `COC(=O)N[C@H](C(=O)N1CCC[C@H]1c1ncc(-c2ccc3cc(-c4ccc(-c5cnc([C@@H]6C[C@@H](C#N)CN6C(=O)[C@H](NC(=O)OC)c6ccccc6)[nH]5)cc4)ccc3c2)[nH]1)C(C)C` [Example 145], the EC50 in experiment [1] (setting [8]) is 0.001 to 0.999 nM; in experiment [3] (setting [10]), 0.01 nM; in experiment [4] (setting [8]), 0.001 to 0.999 nM; in experiment [5] (setting [9]), 1 to 4.99 nM.

As for `COC(=O)N[C@H](C(=O)N1CCC[C@H]1c1ncc(-c2ccc(-c3ccc4cc(-c5cnc([C@@H]6CCCN6C(=O)C(c6ccccc6)N6CCOCC6)[nH]5)ccc4c3)cc2)[nH]1)C(C)C` (stereo partly drawn) [Example 120], the EC50 in experiment [1] (setting [8]) was 0.001 to 0.999 nM; in experiment [3] (setting [10]) it was 0.014 nM; in experiment [4] (setting [8]), 0.001 to 0.999 nM; in experiment [5] (setting [9]), 0.001 to 0.99 nM.

Take `COC(=O)N[C@H](C(=O)N1CCC[C@H]1c1nc(-c2ccc(-c3ccc4cc(C5=CNC([C@@H]6CCCN6C(=O)[C@H](NC(=O)OC)c6ccccc6)N5)ccc4c3)cc2)c[nH]1)C1CCOCC1` (stereo partly drawn) [Example 178]: the EC50 in experiment [1] (setting [8]) was 0.001 to 0.999 nM; in experiment [3] (setting [10]) it was 0.024 nM; in experiment [4] (setting [8]) it was 0.001 to 0.999 nM; in experiment [5] (setting [9]), 0.001 to 0.99 nM.

`COC(=O)N[C@H](C(=O)N1CCC[C@H]1c1nc(-c2ccc3cc(-c4ccc(-c5cnc([C@@H]6CCCN6C(=O)[C@@H](c6ccccc6)N(C)C)[nH]5)cc4)ccc3c2)c[nH]1)C(C)C` [Example 31]: the EC50 in experiment [1] (setting [11]) is 0.001 to 0.999 nM; in experiment [3] (setting [7]) it was 0.014 nM; in experiment [4] (setting [11]), 0.001 to 0.999 nM; in experiment [5] (setting [12]), 0.001 to 0.99 nM.

Turning to `COC(=O)N[C@H](C(=O)N1CC2(C[C@H]1c1ncc(-c3ccc4c(c3)C(F)(F)c3cc(-c5ccc6nc(C7[C@H]8CC[C@H](C8)N7C(=O)[C@@H](NC(=O)OC)C(C)C)[nH]c6c5)ccc3-4)[nH]1)OCCO2)C(C)C` (stereo partly drawn) [Example 38], the EC50 was 1 to 44 nM in experiment [1] (setting [11]), 0.003 nM in experiment [3] (setting [7]), 0.001 to 0.999 nM in experiment [4] (setting [11]) and > 5 nM in experiment [5] (setting [12]).

`CCN(CC)C(C(=O)N1CCC[C@H]1c1ncc(-c2ccc(-c3ccc4cc(-c5cnc([C@@H]6CCCN6C(=O)[C@@H](NC(=O)OC)C(C)C)[nH]5)ccc4c3)cc2)[nH]1)c1ccccc1` (stereo partly drawn) [Example 138]: the EC50 in experiment [1] (setting [8]) is 0.001 to 0.999 nM; in experiment [3] (setting [10]) it was 0.006 nM; in experiment [4] (setting [8]), 0.001 to 0.999 nM; in experiment [5] (setting [9]), 0.001 to 0.99 nM.

Take `COC(=O)N[C@@H](C)C(=O)N1CCC[C@H]1c1ncc(-c2ccc3cc(-c4ccc(-c5cnc([C@@H]6CCCN6C(=O)[C@H](NC(=O)OC)c6ccccc6)[nH]5)cc4)ccc3c2)[nH]1` [Example 164]: the EC50 in experiment [1] (setting [8]) was 0.001 to 0.999 nM; in experiment [3] (setting [10]) it was 0.01 nM; in experiment [4] (setting [8]), 0.001 to 0.999 nM; in experiment [5] (setting [9]), 0.001 to 0.99 nM.

In the case of `COC(=O)N[C@H](C(=O)N1C[C@H](C#N)C[C@H]1c1ncc(-c2ccc3cc(-c4ccc(-c5cnc([C@@H]6CCCN6C(=O)[C@H](NC(=O)OC)c6ccccc6)[nH]5)cc4)ccc3c2)[nH]1)C(C)C` [Example 135], the EC50 in experiment [1] (setting [8]) is 0.001 to 0.999 nM; in experiment [3] (setting [10]) it was 0.006 nM; in experiment [4] (setting [8]), 0.001 to 0.999 nM; in experiment [5] (setting [9]) it was > 5 nM.

Take `COC(=O)N[C@H](C(=O)N1CCC[C@H]1c1ncc(-c2ccc3cc(-c4ccc(-c5cnc([C@@H]6CCCN6C(=O)[C@H](NC(=O)OC)c6ccccc6F)[nH]5)cc4)ccc3c2)[nH]1)C(C)C` [Example 149]: the EC50 in experiment [1] (RLuc reporter) was 0.001 to 0.999 nM; in experiment [3] (read-out: 1b), 0.005 nM; in experiment [4] (RLuc reporter) it was 0.001 to 0.999 nM; in experiment [5] (read-out: 3a, genotype 3a NS5A chimeric 1b Con1 replicon), 0.001 to 0.99 nM.

For `COC(=O)N[C@H](C(=O)N1CCC[C@H]1c1ncc(-c2ccc3cc(-c4ccc(-c5cnc([C@@H]6CCCN6C(=O)[C@H](NC(=O)OC)c6ccc(OC)cc6)[nH]5)cc4)ccc3c2)[nH]1)C(C)C` [Example 109], the EC50 in experiment [1] (setting [8]) was > 44 nM; in experiment [3] (setting [10]), 1.6 nM; in experiment [4] (setting [8]), 1 to 44 nM; in experiment [5] (setting [9]), > 5 nM.
